Legend:
Format in all cases: in vivo
oxytocin = assay: ELISA, content of oxytocin in serum of rats; details: rat serum, positive drug group, dose not given
Procedure: (§1) drenching animals in sequence to put to death within 3 cycles, enabling the animals to have empty stomachs for 12 hours before putting to death, and performing intraperitoneal anesthesia with 3% of pentobarbital sodium at a dose of 0.1 ml/100 g; and taking 8 ml of whole blood in a centrifuge tube, centrifuging at a rate of 4000 r/min for 15 min, separating the serum after centrifuging, labeling, and separately filling and preserving in a refrigerator of −20° C.; 2) ELISA Determination Method is as Follows: Detection is performed according to description of an ELISA kit. Before use, all reagents are fully and uniformly mixed. Lots of bubbles should not be produced in liquid, so as to avoid generating a sample adding error due to addition of lots of bubbles during sample adding. The quantity of needed plates is determined according to a quantity of to-be-detected samples and the quantity of standard substances. […] However, since many samples need to be determined, single holes should be made according to actual conditions. […] A basic principle of enzyme-labeled immunoassay is as follows: an antibody connected onto a solid-phase carrier and an enzyme-labeled antibody are respectively bound to two antigenic determinants on a detected antigen molecule in the sample to form a solid-phase antibody-antigen-enzyme-labeled antibody immune complex. […]

[1] = system: rats suffering from the menopausal depression; assay: open-field test of rats; set-up: After medication minus Before medication (Fecal weight) / Fecal weight: unit not given here; details: positive drug group, dose not given
dopamine = assay: ELISA, content of dopamine in serum of rats; details: rat serum, positive drug group, dose not given
Procedure: as §1

IL-2 = assay: ELISA, content of IL-2 in serum of rats; details: rat serum, positive drug group, dose not given
Procedure: as §1

cGMP = assay: ELISA, content of cGMP in serum of rats; details: rat serum, positive drug group, dose not given
Procedure: as §1

IL-6 = assay: ELISA, content of IL-6 in serum of rats; details: rat serum, positive drug group, dose not given
Procedure: as §1

IL-8 = assay: ELISA, content of IL-8 in serum of rats; details: rat serum, positive drug group, dose not given
Procedure: as §1

cAMP = assay: ELISA, content of cAMP in serum of rats; details: rat serum, positive drug group, dose not given
Procedure: as §1

[2] = system: follicle-stimulating hormone; assay: ELISA, content of follicle-stimulating hormone in serum of rats; details: rat serum, positive drug group, dose not given
Procedure: as §1

[3] = system: rats suffering from the menopausal depression; assay: open-field water drinking test of rats; details: positive drug group, dose not given
5-hydroxytryptamine = assay: ELISA, content of 5-hydroxytryptamine in serum of rats; details: rat serum, positive drug group, dose not given
Procedure: as §1

estradiol = assay: ELISA, content of estradiol in serum of rats; details: rat serum, positive drug group, dose not given
Procedure: as §1

noradrenaline = assay: ELISA, content of noradrenaline in serum of rats; details: rat serum, positive drug group, dose not given
Procedure: as §1

[4] = system: adrenocorticotrophic hormone; assay: ELISA, content of adrenocorticotrophic hormone in serum of rats; details: rat serum, positive drug group, dose not given
Procedure: as §1

Fc1ccc([C@@H]2CCNC[C@H]2COc2ccc3c(c2)OCO3)cc1 [Paroxetine, paroxetine]
OT (oxytocin): 4.1889 ± 0.8811 ng/L
Fecal weight ([1]; rats after medication): 0.14 ± 0.38
Horizontal scores ([1]; rats after medication): 78.29 ± 28.18
Vertical scores ([1]; rats after medication): 9.57 ± 4.68
After medication minus Before medication (Fecal weight) ([1]; rats): −0.94 ± 0.71
After medication minus before medication (horizontal scores) ([1]; rats): 41.14 ± 28.54
DA (dopamine): 7.6595 ± 1.3337 pg/L
IL-2 (IL-2): 341.853 ± 59.289 ng/L
cGMP (cGMP): 1.8333 ± 0.4686 U/L
IL-6 (IL-6): 14.9800 ± 2.9183 ng/mL
IL-8 (IL-8): 196.479 ± 14.596 ng/L
cAMP (cAMP): 2.7761 ± 0.3726 U/L
FSH [2]: 3.7068 ± 0.6242 IU/L
Number of times approaching to water bottles ([3]; rats after medication): 10.43 ± 5.09
Number of times standing ([3]; rats after medication): 11.28 ± 4.23
Water drinking latent period ([3]; rats after medication): 88.86 ± 20.05
Water drinking time ([3]; rats after medication): 112.14 ± 50.83
After medication minus Before medication (Frequencies of approaching water bottles) ([3]; rats): 6.5742 ± 4.0443
After medication minus Before medication (Standing frequency) ([3]; rats): 7.5728 ± 4.5413
After medication minus Before medication (Water drinking time) ([3]; rats): 112.14 ± 50.83
After medication minus Medication (Water drinking latent period) ([3]; rats): 70.43 ± 35.65
5-HT (5-hydroxytryptamine): 42.9048 ± 6.2922 ng/L
E2 (estradiol): 10.0566 ± 0.7140 ng/L
NA (noradrenaline): 32.5359 ± 5.6128 ng/L
ACTH [4]: 16.3682 ± 1.8767 ng/L

From US20180161383A1, “NATURAL PHARMACEUTICAL COMPOSITION FOR TREATING MENOPAUSAL MENTAL DEPRESSION AND ATYPICAL DEPRESSIVE DISORDER AND APPLICATION THEREOF” (SHAANXI TIANKUI BIOMEDICINE TECHNOLOGY LIMITED COMPANY, priority 2015, published 2018)
